US20170066717A1, “NEW PHENYLAZETIDINECARBOXYLATE OR -CARBOXAMIDE COMPOUNDS” (INVENTIVA, priority 2014, published 2017)

Key:
[1] = target: T1, NURR-1/RXRγ (Homo sapiens, UniProt P48443); experiment: Transactivation test, NURR-1-Gal4/RXRγ, luciferase reporter in Cos-7 cells; type: cell-based; conditions: for Emax: COS-7, induction level relative to reference XCT0135908 at 2×10^−5 M (=100%), read-out: hNurr1_RXRgFL Emax (%); for EC50: Cos-7 cells, NURR-1-Gal4/RXRγ, luciferase reporter, read-out: hNurr1_RXRgFL EC50
T1 construct: expressed in transfected cells; host or cells: Cos-7 cells

[2] = Plasma pharmacokinetics in mice after oral administration; type: in vivo; conditions: mouse, male C57/Bl6 mice, oral 10 mg/kg; for AUC: sampling 15 min to 7 h, log-linear trapezoidal method, read-out: AUCplasma; for Cmax: suspension in 1% methylcellulose/0.1% Poloxamer 188
Experimental: (§1) Three series of in vivo tests were carried out with compounds representative of the invention, for the purpose of determining their pharmacokinetic plasma profile and their brain penetration.
1. Study of the Plasma Phannacokinectis in Mice After Oral Administration
Male C57/B16 mice (25-30 g) originating from the establishment Janvier, Le Genest-St-Isle, France were used for this study (9 mice per dose). The animals were fed with standard feed for rodents (Purina Mills, St. Louis, Mo.), placed in cages and subjected to light/darkness cycles of 12 h/12 h, the temperature of the room being maintained at 22±2° C. and the humidity level at 55±10%.
The mice were not deprived food before the administration. Water was provided at will throughout the study. The test compound was admistered orally at 10 mg/kg. For the oral administration at 10 mg/kg, the animals were green, by gavage, 10 mL/kg of a suspension of the test compound, prepared in 1% methylcellulose, 400 cps/0.1% Poloxamer 188/water.
The animals were sacrificed under anesthesia at times 15 min, 30 min, 1 h, 3 h and 7 h after gavage. The blood was collected at each time, and from each animal sacrificed 0.5 mL of blood collected in 1.5 mL tubes containing 20 μL of evaporated anticoagulant (solution of sodium heparinate at 1000 IU/mL) was centrifuged at 4500 g for 3 min in order to obtain approximately 200 μL of plasma. The plasma was divided up into 2 aliquots of 70 μL minimum, which were stoted at −20° C. until they were treated by protein precipitation and then analysis by liquid chromatography coupled to tandem mass spectrometry (LC-MS/MS) in order to quantify the compound tested.
The pharmacokinetic plasma parameters in the mice after oral administration were determined using a non-compartmental approach with the Phoenix WinNonLin software. The area under the curve (AUC0-1) was determined bv the log-linear trapezoidal method. The tesults are brought together in the following table.

[3] = target: T2, NURR-1/RXRα (Homo sapiens, UniProt P19793); experiment: Transactivation test, NURR-1-Gal4/RXRα, luciferase reporter in Cos-7 cells; type: cell-based; conditions: for Emax: COS-7, induction level relative to reference XCT0135908 at 2×10^−5 M (=100%), read-out: hNurr1_RXRaFL Emax (%); for EC50: Cos-7 cells, NURR-1-Gal4/RXRα, luciferase reporter, read-out: hNurr1_RXRaFL EC50
T2 construct: expressed in transfected cells; host or cells: Cos-7 cells

[4] = Brain penetration in rats after intravenous administration; type: in vivo; conditions: rat; for Kp at 4 h: male, Wistar, intravenous, 4 mg/kg, ratio of Cmax brain to Cmax plasma after the 4 hours of infusion, rats, read-out: Kp (partition coefficient between the brain and the plasma); for Cmax at 4 h: male Wistar rats, 4 mg/kg iv infusion into the jugular vein for 4 hours, plasma at end of infusion
Experimental: as §1
2. Study of the Brain Penetration in Rats After Intravenous Administration
Male Wistar rats (250-300 g) originating from the establishment Janvier, Le Genest-St-Isle, France were used for this study (4 rats per study). The animals were fed with standard feed for rodents (Purina Mills, St. Louis, Mo.), placed in cages and subjected to light/darkness cycles of 12 h/12 h, the room temperature being maintained at 22±2° C. and the humidity level at 55±10%. The rats were not deprived food before the administration. Water was provided at will throughout the study.
The test compound was administered intravenously at 4 mg/kg by infusion into the jugular vein for 4 hours. For the intravenous administration, the animals were infused with 12 mL/kg of a solution of the test compound, prepared in 2% Cremophor EL/0.9% NaCl.
The animals were sacrificed under anesthesia after 4 hours of infusion. The blood and the brain were collected from each sacrificed animal 0.5 mL of blood collected in 1.5 mL tubes containing 20 μL of evaporated anticoagulant (solution of sodium heparinate at 1000 IU/mL) was centrifuged at 4500 g for 3 min in order to obtain approximately 200 μL of plasma. The plasma was divided up into 2 aliquots of 70 μL minimum, which were stored at −20° C. until they were treated by protein precipitation and then analysis by liquid chromatography coupled to tandem mass spectrometry (LC-MS/MS) in order to quantify the compound tested.
The brains were immersed in liquid nitrogen directly after they were removed, then stored at −20° C. for analysis. The brains were then ground in the presence of an aqueous/organic solvent mixture in order to obtain a homogenate. These homogenates were then centrifuged and the compound tested was extracted from the supernatant obtained, by liquid-liquid extraction, and then quantified by LC-MS/MS.
The brain penetration in the rats is represented by the Kp, which is the partition coefficient between the brain and the plasma. It is calculated by the ratio of the concentration measured in the brain (Cmax brain) and the plasma (Cmax plasma) after the 4 hours of infusion.

[5] = tested on: dopaminergic neurons of primary culture of rat embryo mesencephalon treated with MPP+; experiment: Neuroprotection in primary culture of rat embryo mesencephalon treated with MPP+ (count of tyrosine hydroxylase expressing cells); type: cell-based; conditions: recombinant human BDNF 10 ng/mL = 100%, 2 days with MPP+
Summary of the method: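 Rat embryo (E15) mesencephalon cultures, 5 days, then MPP+ with or without compound on day 6 for 2 days. Tyrosine hydroxylase-immunolabelled cells counted by image analysis; activity expressed as percent of recombinant human BDNF (10 ng/mL) reference, set at 100%.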

T2 sequence (P19793 whole entry, the tested form may be a part): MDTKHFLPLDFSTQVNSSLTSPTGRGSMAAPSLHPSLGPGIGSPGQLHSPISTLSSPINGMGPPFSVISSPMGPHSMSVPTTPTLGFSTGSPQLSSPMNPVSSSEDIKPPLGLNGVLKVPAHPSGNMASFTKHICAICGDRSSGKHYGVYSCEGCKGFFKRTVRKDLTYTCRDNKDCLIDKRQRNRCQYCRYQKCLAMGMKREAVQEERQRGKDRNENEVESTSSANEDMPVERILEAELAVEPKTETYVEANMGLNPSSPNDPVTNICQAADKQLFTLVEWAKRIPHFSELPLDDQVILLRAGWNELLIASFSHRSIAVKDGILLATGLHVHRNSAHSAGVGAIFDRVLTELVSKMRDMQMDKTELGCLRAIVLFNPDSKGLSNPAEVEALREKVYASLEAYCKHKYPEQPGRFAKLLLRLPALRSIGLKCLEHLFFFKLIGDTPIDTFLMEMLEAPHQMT
T2 sequence (P43354 whole entry partner, the tested form may be a part): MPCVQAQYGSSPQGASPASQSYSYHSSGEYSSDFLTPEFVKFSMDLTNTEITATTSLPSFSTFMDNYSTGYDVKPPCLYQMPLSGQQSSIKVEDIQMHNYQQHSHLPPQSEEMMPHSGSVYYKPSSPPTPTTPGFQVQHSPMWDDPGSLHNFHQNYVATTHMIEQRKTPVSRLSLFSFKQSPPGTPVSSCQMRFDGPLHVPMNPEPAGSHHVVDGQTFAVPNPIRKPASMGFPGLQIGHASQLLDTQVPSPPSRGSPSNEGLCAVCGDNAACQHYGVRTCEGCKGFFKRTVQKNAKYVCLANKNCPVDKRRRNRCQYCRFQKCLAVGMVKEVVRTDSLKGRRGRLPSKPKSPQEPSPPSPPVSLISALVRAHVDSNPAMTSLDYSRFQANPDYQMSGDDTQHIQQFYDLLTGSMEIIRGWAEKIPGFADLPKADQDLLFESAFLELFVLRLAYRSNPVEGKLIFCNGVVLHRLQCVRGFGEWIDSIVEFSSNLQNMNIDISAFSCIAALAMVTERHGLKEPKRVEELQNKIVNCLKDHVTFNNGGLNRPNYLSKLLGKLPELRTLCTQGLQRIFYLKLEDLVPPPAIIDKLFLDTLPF
T2 sequence (P04386 1-147 partner limits assumed): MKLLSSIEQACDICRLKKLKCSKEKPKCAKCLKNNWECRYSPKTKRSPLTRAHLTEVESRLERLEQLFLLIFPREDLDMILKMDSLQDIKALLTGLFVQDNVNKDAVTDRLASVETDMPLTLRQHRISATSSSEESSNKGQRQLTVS
T1 sequence (P48443 whole entry, the tested form may be a part): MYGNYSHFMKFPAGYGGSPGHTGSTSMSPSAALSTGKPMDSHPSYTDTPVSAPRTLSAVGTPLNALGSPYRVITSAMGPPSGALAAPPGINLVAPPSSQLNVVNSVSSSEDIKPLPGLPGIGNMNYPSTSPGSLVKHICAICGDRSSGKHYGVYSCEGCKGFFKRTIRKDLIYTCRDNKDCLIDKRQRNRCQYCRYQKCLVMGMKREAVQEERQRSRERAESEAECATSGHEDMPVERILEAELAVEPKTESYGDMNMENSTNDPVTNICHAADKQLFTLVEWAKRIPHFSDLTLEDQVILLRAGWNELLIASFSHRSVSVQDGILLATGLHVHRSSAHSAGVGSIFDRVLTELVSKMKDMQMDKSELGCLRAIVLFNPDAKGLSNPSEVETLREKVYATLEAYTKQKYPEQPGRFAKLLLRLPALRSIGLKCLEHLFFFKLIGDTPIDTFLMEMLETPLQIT
T1 sequence (P43354 whole entry partner, the tested form may be a part): as the sequence (P43354 whole entry partner, the tested form may be a part) above
T1 sequence (P04386 1-147 partner limits assumed): as the sequence (P04386 1-147 partner limits assumed) above

Compound	Emax [1]	EC50 [1]	AUC [2]	Cmax [2]	Emax [3]	EC50 [3]	Kp at 4 h [4]	Cmax at 4 h [4]	percentage of activity relative to the BDNF reference ([5]; compound 1 μM)	percentage of activity relative to the BDNF reference ([5]; compound 10 μM)
O=C(O)C1CN(c2cccc(-c3cc(C(F)(F)F)ccc3OCCc3cccs3)c2)C1 [Example 100, 1-[3-[2-[2-(2-thienyl)ethoxy]-5-(trifluoromethyl)phenyl]phenyl]azetidine-3-carboxylic acid]	63%	24 nM	56600 ng·h/mL	11200 ng/mL	63%	14 nM	0.75	6070 ng/mL	100%	106%
Cc1nnc(COc2ccc(C(F)(F)F)cc2-c2cccc(N3CC(C(=O)O)C3)c2)o1 [Example 110, 1-[3-[2-[(5-methyl-1,3,4-oxadiazol-2-yl)methoxy]-5-(trifluoromethyl)phenyl]phenyl]azetidine-3-carboxylic acid]	32%	1720 nM	40100 ng·h/mL	8710 ng/mL	49%	1510 nM	0.2	10100 ng/mL	74%	102%
O=C(O)C1CN(c2cccc(N3CC4(CCC4)Oc4cc(C(F)(F)F)ccc43)c2)C1 [Example 113, 1-[3-[7-(trifluoromethyl)spiro[3H-1,4-benzoxazine-2,1′-cyclobutane]-4-yl]phenyl]azetidine-3-carboxylic acid]	139%	4 nM	3340 ng·h/mL	2290 ng/mL	140%	3 nM	1.2	3430 ng/mL	90%	80%
O=C(O)C1CN(c2cccc(N3CCOc4cc(C(F)(F)F)ccc43)c2)C1 [Example 115, 1-[3-[7-(trifluoromethyl)-2,3-dihydro-1,4-benzoxazin-4-yl]phenyl]azetidine-3-carboxylic acid]	129%	22 nM	51600 ng·h/mL	24400 ng/mL	114%	58 nM	0.22	10600 ng/mL	103%	77%
CCCC1Oc2cc(C(F)(F)F)ccc2N(c2cccc(N3CC(C(=O)O)C3)c2)C1=O (stereo not shown) [Example 122, 1-[3-[3-oxo-2-propyl-7-(trofluoromethyl)-1,4-benzoxazin-3-yl]phenyl]azetidine-3-caroxylic acid]	95%	14 nM	34100 ng·h/mL	7840 ng/mL	93%	13 nM	1.14	3860 ng/mL	92%	39%
CN(C)Cc1cn(-c2cccc(N3CC(C(=O)O)C3)c2)c2ccc(C(F)(F)F)cc12 [Example 130, 1-[3-[3-(dimethylaminomethyl)-5-(trifluoromethyl)indol-1-yl]phenyl]azetidine-3-carboxylic acid]	109%	513 nM	23000 ng·h/mL	13800 ng/mL	113%	246 nM	0.13	9010 ng/mL	57%	103%
O=C(O)C1CN(c2cccc(N3c4ccc(C(F)(F)F)cc4CC3Cc3ccccc3)c2)C1 (stereo not shown) [Example 147, 1-[3-[2-benzyl-5-(trifluoromethyl)indolin-1-yl]phenyl]azetidine-3 carboxylic acid]	50%	87 nM	143000 ng·h/mL	33000 ng/mL	68%	44 nM	0.12	7910 ng/mL	53%	104%
